Experiments:
[1] = tested on: tobacco etch virus protease (TEV); assay: Dual-signal CLiPS, TEV cleavage of cell-surface displayed substrates; assay type: biochemical
Protocol: Construction of a control plasmid (pBSGXP2) expressing a fusion of the streptavidin-binding peptide (WCHPMWEVMCLR) (SEQ ID NO:34) (Rice et. al. 2006) and a GGSGGS (SEQ ID NO:01) sequence flanked by flexible linkers on the amino terminus of circularly permuted outer membrane X (CPX) and a binding peptide of SLP-76 (P2) on the carboxy-terminus was performed using primers 1, 2, and 3 with primers 4 and 5. […] Products were digested with SfiI and ligated to similarly digested pBAD33. A substrate library (pBS5XP2) of the form X5, where X is any amino acid, was constructed using PCR with a synthetic oligonucleotide incorporating NNS codons (primer 9) along with primers 1 and 8 (Table 2). The product was digested with SfiI and ligated into a similarly digested pBAD33 plasmid. Transformation of the plasmid library into electrocompetent MC1061 yielded 6×10^7 colony forming units.
A second substrate library (pBSToptP2) was created using primer 10 with primers 1 and 8. The product was digested with SfiI and ligated into a similarly digested pBAD33 plasmid. Transformation of the plasmid library into electrocompetent MC1061 yielded 5×10^7 colony forming units.
Streptavidin conjugated phycoerythrin (SAPE) was used for labeling streptavidin binding affinity ligand on the N- and C-termini of CPX (FIG. 15). […] Of the three fluorescent proteins AlajGFP-Mona gave a higher fluorescence and was used for all labeling. The resulting CPX scaffold required a 3 hr induction time due to the additional peptide that was fused to the C-terminus. For optimum labeling of cells without protease reaction, the cells were incubated for 1 hr at 22° C. with SAPE (50 nM) and AlajGFPM (250 nM). […] For the described example below 1 hr incubation was used.
(§1) For screening and clone analysis, overnight cultures were subcultured by dilution into fresh medium (1:50) and grown for 2 hrs at 37° C. The subculture was induced with 0.1% arabinose and incubated with shaking at room temperature for 3 hrs. Cell aliquots were washed with PBS (pH 8.0), and optical density at 600 nm (OD600) was measured to estimate cell concentration. Cells (10^8) were pelleted by centrifugation, the supernatant was removed, and the cells were resuspended in reaction buffer (10 μL). Following addition of the enzyme, the reaction mixture was incubated at room temperature on a rotary shaker. Cells were removed and diluted 100-fold in PBS to stop the reaction, pelleted by centrifugation, and resuspended in PBS containing SA-PE (50 nM) and AlajGFP-MONA. After incubation at room temperature (1 hr), cells were washed with PBS and analyzed or sorted using a FACSAria™ cell sorter (Becton, Dickinson and Company).
(§2) Specifically, for each sample, conversion was determined by flow cytometry analyses using the relationship
(§3) [formula] where (FL−) is the fluorescence after incubating without enzyme, (FL+) is fluorescence after incubation with enzyme, and (FL0) is fluorescence of unlabeled cells. For the recombinant FRET protein reactions, conversion was calculated by dividing the ratiometric FRET signal (yellow fluorescence/cyan fluorescence) by the FRET ratio that results from complete cleavage (Felber et al., Biotechniques 36:878-85 (2004)). For synthetic peptide reactions, conversion was calculated by dividing the fluorescence increase by the fluorescence change due to complete hydrolysis. The reported enteropeptidase KM for the physiological substrate tripsinogen is 17 μM (Light et al., J Biol Chem 259:13195-8 (1984)), but 600 μM for short DDDDK (SEQ ID NO:02) peptides (Lu et al., J Mol Biol 292:361-73 (1999)). Given KM for short peptides is much larger than the substrate concentrations that were used (<5 μM), the Michaelis-Menton model simplifies to
The reaction buffer for TEV assays was 50 mM Tris-Cl pH 8.0 supplemented with 20. mM NaCl and 2 mM CaCl2. […]

[2] = target: T1, enteropeptidase (catalytic subunit light chain) (Bos taurus, UniProt P98072); assay: CLiPS whole-cell assay, enteropeptidase cleavage of cell-surface displayed substrates (FACS); assay type: biochemical; conditions: for change in mean fluorescence intensity after incubation with enteropeptidase before SAPE labeling: E. coli displaying reporter-substrate, flow cytometry
T1 construct: the catalytic subunit light chain of enteropeptidase (EP) (New England Biolabs); purchased New England Biolabs
Protocol: For screening and clone analysis, overnight cultures were subcultured by dilution into fresh medium (1:50) and grown for 2 hours. The subculture was then induced with 0.04% arabinose and incubated with shaking at room temperature. Cell aliquots were harvested washed with PBS (pH 8.0) and absorbance at 600 nm (OD600) was measured to estimated density. Cells were pelleted by centrifugation, the supernatant removed and the cells resuspended in reaction buffer ([…]). The enzyme was added, and the reaction mixture was incubated at room temperature on rotary shaker (60 rpm). To stop the reaction cells were removed and diluted 100-fold in PBS, pelleted by centrifugation, and resuspended in PBS containing SA-PE (50 nM). After incubation at room temperature (1 hr), cells were washed with PBS and analyzed or sorted using a FACSAria™ cell sorter.
For enteropeptidase cleavage assays, cultures were induced for 2 hr. The reaction buffer for enteropeptidase was 50 mM Tris-Cl pH 8.0 supplemented with 20 mM NaCl and 2 mM CaCl2. […]
as §2
[formula] where (FL−) is the fluorescence after incubating without enzyme, (FL+) is fluorescence after incubation with enzyme, and (FL0) is fluorescence of unlabeled cells. For the recombinant FRET protein reactions, conversion was calculated by dividing the ratiometric FRET signal (yellow fluorescence/cyan fluorescence) by the FRET ratio that results from complete cleavage (Felber et al., Biotechniques 36:878-85 (2004)). For synthetic peptide reactions, conversion was calculated by dividing the fluorescence increase by the fluorescence change due to complete hydrolysis. […]
Given the utility of fluorescence-activated cell sorting (FACS) as a quantitative library screening tool, peptidase activity was assayed by displaying reporter-substrates on the surface of Esherichia coli (FIG. 1, panel A). […] In this way, protease activity towards a given substrate would be detectable by monitoring whole-cell fluorescence using FACS. […]

enteropeptidase [3] = conditions: reported values (Light et al. 1984; Lu et al. 1999); cited from earlier work
MMP-1 = target: T2, MMP-1 (Homo sapiens, UniProt P03956); assay: Dual-signal CLiPS, MMP-1 cleavage of cell-surface displayed substrates; assay type: biochemical; conditions: MMP substrates from sort 4 of 5X library; cells incubated with 1.5 pM MMP-1
T2 sequence (P03956 100-469): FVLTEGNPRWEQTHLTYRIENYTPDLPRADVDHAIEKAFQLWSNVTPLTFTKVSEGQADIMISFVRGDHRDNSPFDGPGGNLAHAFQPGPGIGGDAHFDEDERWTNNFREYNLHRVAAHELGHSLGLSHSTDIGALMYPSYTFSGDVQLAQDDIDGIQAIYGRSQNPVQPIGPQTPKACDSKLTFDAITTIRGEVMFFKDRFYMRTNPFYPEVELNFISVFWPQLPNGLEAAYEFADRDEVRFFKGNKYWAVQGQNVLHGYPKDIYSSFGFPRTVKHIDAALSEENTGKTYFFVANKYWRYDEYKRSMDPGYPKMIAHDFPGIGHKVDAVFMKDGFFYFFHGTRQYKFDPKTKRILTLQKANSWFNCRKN
Protocol: as §1, §2, §3
The MMP-1 assays were performed by incubating cells with 1.5 pM MMP-1. Sorts for hydrolysis were performed after 16 hrs, 19 hrs, and 16 hrs for sorts 1, 3 and 5, respectively (FIGS. 9 and 10). Enrichment after 4 sorts can be seen by the fluorescence shift due to MMP-1 incubation (FIG. 10) and this population was sorted a final time for hydrolyzed substrates. These clones were sequences and assayed for conversion (Table 8). […] Many of these sequences have been reported as MMP-1 substrates. However, substrates of MMP-1 with amino acids M and L at positions P1 and P3 have not previously been reported.

enteropeptidase [4] = target: T3, enteropeptidase (Bos taurus, UniProt P98072); assay: Enteropeptidase cleavage of soluble CyPet-YPet FRET fusion protein substrates (fluorimetry); assay type: biochemical; conditions: CyPet-YPet fusion protein substrate ~0.5 μM, 0.29 nM enteropeptidase
T3 construct: the catalytic subunit light chain of enteropeptidase (EP) (New England Biolabs); purchased New England Biolabs
Description: Substrates EP2.1, EP4.1, EP4.2, and EP4.3 identified for enteropeptidase by CLiPS were amplified with YPet using reverse primer 7 with forward primers 8, 9, 10, and 11, respectively (Table1). The canonical EP substrate was amplified as a fusion to YPet using primers 7 and 12 (Table 1). As a negative control, a GSGSGS (SEQ ID NO:18) linker was substituted for the six amino acid substrate sequence using primers 7 and 13 (Table 1). These products were digested with kpnI and sphI and ligated to similarly digested plasmid containing CyPET to yielded plasmids pBC21Y, pBC41Y, pBC42Y, pBC43Y pBCEPY and pBCGSY.
Overnight cultures of MC1061 transformed with the FRET substrate encoding expression vectors described above were subcultured 1:50 and grown for 2 hrs. […] Reactions were performed in 100 μL of enteropeptidase reaction buffer with ˜0.5 μM fusion protein, as determined using the extinction coefficient of YPet at 514 nm (Nguyen et al., Nat Biotechnol 23:355-60 (2005)) and Beer's law. Enteropeptidase was added to each reaction to a final concentration of 0.29 nM and fluorescence emission at 475 nm (cyan) and 527 nm (yellow) was monitored upon excitation at 433 nm using a Safire fluorimeter (Tecan).
[formula] where (FL−) is the fluorescence after incubating without enzyme, (FL+) is fluorescence after incubation with enzyme, and (FL0) is fluorescence of unlabeled cells. […]

[5] = TEVopt library clones, 2 hour incubation with 2 units of TEV, Guava EasyCyte plate reading cytometer
[6] = top TEV substrates from 5X library, 1 hr with 10 units of TEV

T1 sequence (P98072 801-1035 limits assumed): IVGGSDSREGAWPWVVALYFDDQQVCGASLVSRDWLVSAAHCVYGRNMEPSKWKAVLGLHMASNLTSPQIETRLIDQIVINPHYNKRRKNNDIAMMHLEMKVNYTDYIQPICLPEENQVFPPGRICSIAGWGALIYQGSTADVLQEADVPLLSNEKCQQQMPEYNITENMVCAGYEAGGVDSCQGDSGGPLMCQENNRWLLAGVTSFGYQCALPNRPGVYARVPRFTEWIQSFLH
Chain of tobacco etch virus protease (TEV) (P04517 2038-2255 limits assumed): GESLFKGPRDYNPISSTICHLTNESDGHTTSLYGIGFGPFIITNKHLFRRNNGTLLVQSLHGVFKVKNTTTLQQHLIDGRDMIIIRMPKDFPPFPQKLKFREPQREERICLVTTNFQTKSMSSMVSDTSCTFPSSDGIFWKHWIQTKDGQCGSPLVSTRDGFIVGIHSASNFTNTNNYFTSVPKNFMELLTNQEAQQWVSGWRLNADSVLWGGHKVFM
Chain of enteropeptidase (P98072 801-1035 limits assumed): as the sequence (P98072 801-1035 limits assumed) above
T3 sequence (P98072 801-1035 limits assumed): as above

Substance: ALYIQG [A3]
- % Conversion [1, 5]: 92.212%

Substance: DDDDKGGQS [Canonical, reference compound]
- change in mean fluorescence intensity after incubation with enteropeptidase before SAPE labeling [2]: roughly twenty-fold decrease
- Km (enteropeptidase [3]): 600 µM

Substance: DLYWQG [C3]
- % Conversion [1, 5]: 73.3768%

Substance: DRELY [F04]
- % Conversion [1, 6]: 79%

Substance: DVYVQG [A2]
- % Conversion [1, 5]: 52.6409%

Substance: EEAVL [H07]
- % Conversion [1, 6]: 71%

Substance: EEELY [B02]
- % Conversion [1, 6]: 72%

Substance: ELYAQG [C5]
- % Conversion [1, 5]: 58.8389%

Substance: ELYWQG [C4]
- % Conversion [1, 5]: 68.9173%

Substance: ENLYFQS [Control, reference compound]
- % Conversion [1, 5]: 66.3577%

Substance: EVYVQG [B6]
- % Conversion [1, 5]: 61.0145%

Substance: FLYLQG [A1]
- % Conversion [1, 5]: 91.8387%

Substance: GEDLL [F09]
- % Conversion [1, 6]: 71%

Substance: GGQSGQ
- change in mean fluorescence intensity after incubation with enteropeptidase before SAPE labeling [2]: minimal change in fluorescence

Substance: LEQLI [B09]
- % Conversion [1, 6]: 76%

Substance: LLYIQG [D4]
- % Conversion [1, 5]: 51.6773%

Substance: MPLVM
- % Conversion (MMP-1): 65.9%

Substance: MPVVL
- % Conversion (MMP-1): 42.8%

Substance: PEVIY [C10]
- % Conversion [1, 6]: 81%

Substance: PMAVI
- % Conversion (MMP-1): 69.9%

Substance: PMAVT
- % Conversion (MMP-1): 50.4%

Substance: PVAMR
- % Conversion (MMP-1): 72.9%

Substance: PVNVV
- % Conversion (MMP-1): 78.9%

Substance: PVPMV
- % Conversion (MMP-1): 49.6%

Substance: QLYFQS [C6]
- % Conversion [1, 5]: 61.7894%

Substance: SLYVQG [E4]
- % Conversion [1, 5]: 86.3465%

Substance: SLYWQG [D5]
- % Conversion [1, 5]: 71.6599%

Substance: SSGDRMWGG [EP 4.3]
- second order rate constant (kcat/KM) relative to canonical substrate DDDDK ([2]; cell-surface displayed substrates, time-dependent conversion fit to Michaelis-Menton model): 13 fold
- cleavage rate relative to DDDDK (enteropeptidase [4]): 17 fold

Substance: TPLAL
- % Conversion (MMP-1): 41.7%

Substance: VLYLQS [A4]
- % Conversion [1, 5]: 85.4432%

Substance: VLYTQG [E6]
- % Conversion [1, 5]: 54.8951%

Substance: VPVNM
- % Conversion (MMP-1): 76%

Substance: VPVVM
- % Conversion (MMP-1): 36.6%

Substance: WEPLW [H08]
- % Conversion [1, 6]: 73%

Substance: WESLY [E11]
- % Conversion [1, 6]: 77%

Substance: WLYLQG [D1]
- % Conversion [1, 5]: 68.0478%

Substance: tripsinogen: physiological substrate of enteropeptidase
- Km (enteropeptidase [3]): 17 µM
